Four compounds from patent publication US20250177359A1, “COMPOUNDS FOR USE IN THE TREATMENT OF CANCER AND INFLAMMATORY CONDITIONS” (priority 2022, published 2025) can be followed below.

The target in this assay is T1, TNKS2 (Homo sapiens, UniProt Q9H2K2).
T1 sequence (Q9H2K2 1-1166): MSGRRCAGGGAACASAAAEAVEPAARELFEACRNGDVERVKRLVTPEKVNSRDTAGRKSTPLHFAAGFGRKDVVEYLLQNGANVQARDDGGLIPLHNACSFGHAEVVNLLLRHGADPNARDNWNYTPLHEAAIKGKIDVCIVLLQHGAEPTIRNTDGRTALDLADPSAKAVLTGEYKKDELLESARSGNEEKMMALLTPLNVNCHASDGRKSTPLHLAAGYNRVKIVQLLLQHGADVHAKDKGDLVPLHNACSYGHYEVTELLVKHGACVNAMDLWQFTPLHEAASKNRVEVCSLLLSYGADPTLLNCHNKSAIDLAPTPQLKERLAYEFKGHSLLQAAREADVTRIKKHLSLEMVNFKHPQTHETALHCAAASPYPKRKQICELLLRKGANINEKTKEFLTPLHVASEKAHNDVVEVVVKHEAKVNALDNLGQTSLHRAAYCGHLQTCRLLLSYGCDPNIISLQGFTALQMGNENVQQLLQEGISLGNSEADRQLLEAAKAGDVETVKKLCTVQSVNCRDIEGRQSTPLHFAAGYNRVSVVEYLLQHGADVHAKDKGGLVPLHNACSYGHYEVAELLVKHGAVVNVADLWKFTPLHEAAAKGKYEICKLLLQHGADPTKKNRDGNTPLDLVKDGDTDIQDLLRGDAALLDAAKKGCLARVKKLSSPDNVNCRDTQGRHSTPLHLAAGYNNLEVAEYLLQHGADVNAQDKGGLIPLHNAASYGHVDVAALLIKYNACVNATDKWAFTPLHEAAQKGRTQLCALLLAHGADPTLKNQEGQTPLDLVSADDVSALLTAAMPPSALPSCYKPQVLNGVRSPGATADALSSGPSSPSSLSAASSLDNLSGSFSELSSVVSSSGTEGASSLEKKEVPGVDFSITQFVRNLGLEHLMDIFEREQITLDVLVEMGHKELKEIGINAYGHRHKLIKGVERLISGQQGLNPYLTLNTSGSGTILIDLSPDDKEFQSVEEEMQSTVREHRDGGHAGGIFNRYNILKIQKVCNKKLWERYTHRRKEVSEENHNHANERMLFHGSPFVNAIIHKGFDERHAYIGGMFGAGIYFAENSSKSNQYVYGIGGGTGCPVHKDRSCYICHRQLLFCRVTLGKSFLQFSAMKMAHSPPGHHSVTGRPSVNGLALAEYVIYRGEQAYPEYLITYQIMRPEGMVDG
Kind of assay: biochemical.

Setting [1] is: read-out: TNKS2 IC50, NAD+ consumption assay, > less than 50% inhibition at highest concentration, >> no inhibition.

Where two headings read alike, the source gives them in different places.

With `COc1ccc(OC)c2c1sc1nnc(N)n12` [Compound 28, 5,8-Dimethoxy[1,2,4]triazolo[3,4-b][1,3]benzothiazol-3-amine], the IC50 under setting [1] was determined as 10 µM.
With `Cc1ccc2c(c1)sc1nnc(N)n12` [Compound 22, 7-Methyl[1,2,4]triazolo[3,4-b][1,3]benzothiazol-3-amine], the IC50 under setting [1] worked out at 5.7 µM.
For the compound `Nc1nnc2sc3cc(O)ccc3n12` [Compound 109, 3-Amino[1,2,4]triazolo[3,4-b][1,3]benzothiazol-7-ol], the IC50 was around 0.2 µM.
With `Oc1ccc2c(c1)sc1nncn12` [Compound 10], the IC50 (read-out: TNKS2 IC50, NAD+ consumption assay) is 0.37 µM.
